# Source: publication PMC10364322, “Evaluation of chronic drug-induced electrophysiological and cytotoxic effects using human-induced pluripotent stem cell-derived cardiomyocytes (hiPSC-CMs)” (Frontiers in Pharmacology, 2023)
# Experiments:
# [1] = tested on: hiPSC-CMs (iCell-Cardiomyocytes^2); assay: MEA impedance (cytotoxicity readout) in hiPSC-CMs
# [2] = tested on: Annexin V activation in hiPSC-CMs; format: cell-based; details: 24, 48, 72 h
# Experimental: The assays were performed according to manufacturer instructions.
# The nonparametric Wilcoxon-Mann Whitney Test was used to compare the percent change from the baseline (Δ%) value between the group treated with the compound at a given concentration and the group treated with the DMSO at each matching time points. A two-sided test at 5% significance level was considered. […] To assess the physiological relevance of changes, a tolerance interval of DMSO experiments was calculated at each time point, for each parameter. […] TIs indicate an interval where, with a certain confidence level (1- α = 0.95), a specified proportion (p = 0.80) of percent change for DMSO data falls. The lower and upper limits based on the TI values were used as cut-offs for the interpretation of the changes. For the cytotoxicity assays, measurements of fluorescence (after background fluorescence subtraction) from wells treated with the compounds were normalized by the average value of vehicle experiments (DMSO 0.1%) to obtain a DMSO-corrected, delta/delta percent change. Experiments from each condition, as delta/delta percent, were averaged and expressed as mean ± SD. Statistical analysis was performed using a non-parametric test (Kruskal-Wallis) and each treatment condition was compared to the relative DMSO 0.1%. Differences were considered statistically significant when the p-value was smaller than 0.05.
# [3] = free therapeutic Cmax in humans; ref FDA-approved drug packages, PharmaPendium; cited from earlier work
# [4] = tested on: hiPSC-CMs (iCell-Cardiomyocytes^2); assay: RealTime-Glo Annexin V Apoptosis and Necrosis Assay: necrosis; format: cell-based, human; details: for Necrosis, Mean±SD: 10 µM
# Experimental: (§1) iCell-Cardiomyocytes^2 (Fujifilm Cellular Dynamics Inc., Madison, WI, United States) were seeded into 96 well-plates (Greiner Bio One, ref. 655946) according to the manufacturer instructions, at a density of 50 k cells/well. […] To assess effects on viability and cytotoxicity, two assay combination kits were used: 1) RealTime-Glo™ Annexin V Apoptosis and Necrosis Assay [Promega, JA1011 ([Kupcho et al., 2019])] and 2) ApoLive-Glo Multiplex Assay [Promega, G6410 ([Flörkemeier et al., 2022])]. The assays were performed according to manufacturer instructions. The experiments were repeated at 24, 48, and 72 h in order to assess any time-dependent change in live cells or activation of cell-death pathways.
# (§2) The nonparametric Wilcoxon-Mann Whitney Test was used to compare the percent change from the baseline (Δ%) value between the group treated with the compound at a given concentration and the group treated with the DMSO at each matching time points. A two-sided test at 5% significance level was considered. […] To assess the physiological relevance of changes, a tolerance interval of DMSO experiments was calculated at each time point, for each parameter. Specifically, the Δ% values of all (pooled) DMSO wells (N = 81) were used to obtain the non-parametric 80%–95% (p = 0.80 & 1-α = 0.95) tolerance interval (TI). TIs indicate an interval where, with a certain confidence level (1- α = 0.95), a specified proportion (p = 0.80) of percent change for DMSO data falls. The lower and upper limits based on the TI values were used as cut-offs for the interpretation of the changes. For the cytotoxicity assays, measurements of fluorescence (after background fluorescence subtraction) from wells treated with the compounds were normalized by the average value of vehicle experiments (DMSO 0.1%) to obtain a DMSO-corrected, delta/delta percent change. Experiments from each condition, as delta/delta percent, were averaged and expressed as mean ± SD. Statistical analysis was performed using a non-parametric test (Kruskal-Wallis) and each treatment condition was compared to the relative DMSO 0.1%. Differences were considered statistically significant when the p-value was smaller than 0.05.
# [5] = tested on: hiPSC-CMs (iCell-Cardiomyocytes^2); assay: ApoLive-Glo Multiplex Assay: viability (live cells); format: cell-based, human; details: for Live Cells (viability), Mean±SD: 10 µM
# Experimental: as §1, §2
# [6] = tested on: caspases 3,7 in hiPSC-CMs; assay: ApoLive-Glo Multiplex Assay: apoptosis, caspases 3,7 activation; format: cell-based, human; details: 10 µM
# Experimental: as §1, §2
compound,measurement,setting,value
COc1nc(N)nc2c1ncn2[C@@H]1O[C@H](COP(=O)(N[C@@H](C)C(=O)OCC(C)(C)C)Oc2cccc3ccccc23)[C@@H](O)[C@@]1(C)O (stereo partly shown) [BMS-986094],"Imp (impedance), % change from baseline","[1]; 0.3 µM, 2h",-4±2%
same,"Imp (impedance), % change from baseline","[1]; 0.3 µM, 24h",-3±2%
same,"Imp (impedance), % change from baseline","[1]; 0.3 µM, 48h",-6±3%
same,"Imp (impedance), % change from baseline","[1]; 0.3 µM, 72h",-8±3%
same,"Imp (impedance), % change from baseline","[1]; 0.3 µM, 96h",-18±6%
same,"Imp (impedance), % change from baseline","[1]; 1 µM, 2h",-1±2%
same,"Imp (impedance), % change from baseline","[1]; 1 µM, 24h",-1±4%
same,"Imp (impedance), % change from baseline","[1]; 1 µM, 48h",-5±3%
same,"Imp (impedance), % change from baseline","[1]; 1 µM, 72h",-16±2%
same,"Imp (impedance), % change from baseline","[1]; 1 µM, 96h",-29±4%
same,"Imp (impedance), % change from baseline","[1]; 3 µM, 72h",-19±6 %
same,"Imp (impedance), % change from baseline","[1]; 3 µM, 96h",-38±5 %
same,"Imp (impedance), % change from baseline","[1]; 3 µM, 2h",3±5%
same,"Imp (impedance), % change from baseline","[1]; 3 µM, 24h",1±2%
same,"Imp (impedance), % change from baseline","[1]; 3 µM, 48h",-5±3%
same,"Imp (impedance), % change from baseline","[1]; 10 µM, 2h",2±1%
same,"Imp (impedance), % change from baseline","[1]; 10 µM, 24h",4±4%
same,"Imp (impedance), % change from baseline","[1]; 10 µM, 48h",2±10 %
same,"Imp (impedance), % change from baseline","[1]; 10 µM, 72h",-11±12%
same,"Imp (impedance), % change from baseline","[1]; 10 µM, 96h",-41±20 %
C[C@H](CS)C(=O)N1CCC[C@H]1C(=O)O [Captopril],apoptosis activation,[2],did not display any significant changes in necrosis or apoptosis activation
same,Free Cmax,[3],2.3 µM
same,"Necrosis, Mean±SD",[4]; 24h,21.5±33.7 Δ/Δ%
same,"Necrosis, Mean±SD",[4]; 48h,-8.1±21.1 Δ/Δ%
same,"Necrosis, Mean±SD",[4]; 72h,13.9±44.2 Δ/Δ%
same,necrosis activation,"[4]; 24, 48, 72 h",did not display any significant changes in necrosis or apoptosis activation
same,"Live Cells (viability), Mean±SD",[5]; 24h,-8.4±17.4 Δ/Δ%
same,"Live Cells (viability), Mean±SD",[5]; 48h,-9.1±9.5 Δ/Δ%
same,"Live Cells (viability), Mean±SD",[5]; 72h,2.4±8.5 Δ/Δ%
same,number of live cells,"[5]; any of the time points (24, 48, 72 h)",did not show any significant change in live cell number
same,"Imp (impedance), % change from baseline","[1]; 1 µM, 2h",7±5%
same,"Imp (impedance), % change from baseline","[1]; 1 µM, 24h",-7±1%
same,"Imp (impedance), % change from baseline","[1]; 1 µM, 48h",-9±4%
same,"Imp (impedance), % change from baseline","[1]; 1 µM, 72h",-2±3%
same,"Imp (impedance), % change from baseline","[1]; 1 µM, 96h",-4±5%
same,"Imp (impedance), % change from baseline","[1]; 3 µM, 72h",1±4%
same,"Imp (impedance), % change from baseline","[1]; 3 µM, 96h",-1±4%
same,"Imp (impedance), % change from baseline","[1]; 3 µM, 2h",9±3%
same,"Imp (impedance), % change from baseline","[1]; 3 µM, 24h",-6±3%
same,"Imp (impedance), % change from baseline","[1]; 3 µM, 48h",-7±4%
same,"Imp (impedance), % change from baseline","[1]; 10 µM, 2h",9±3%
same,"Imp (impedance), % change from baseline","[1]; 10 µM, 24h",-5±3%
same,"Imp (impedance), % change from baseline","[1]; 10 µM, 48h",-10±5%
same,"Imp (impedance), % change from baseline","[1]; 10 µM, 72h",-1±5%
same,"Imp (impedance), % change from baseline","[1]; 10 µM, 96h",-4±5%
same,"Imp (impedance), % change from baseline","[1]; 30 µM, 2h",8±2%
same,"Imp (impedance), % change from baseline","[1]; 30 µM, 24h",-4±3%
same,"Imp (impedance), % change from baseline","[1]; 30 µM, 48h",-8±2%
same,"Imp (impedance), % change from baseline","[1]; 30 µM, 72h",1±5%
same,"Imp (impedance), % change from baseline","[1]; 30 µM, 96h",-4±6%
same,effect on impedance,"[1]; all concentrations tested, up to 96 h",did not have a significant effect on impedance
same,"Caspases 3, 7 (apoptosis activation), Mean±SD",[6]; 24h,-6.9±11.1 Δ/Δ%
same,"Caspases 3, 7 (apoptosis activation), Mean±SD",[6]; 48h,-3±10.7 Δ/Δ%
same,"Caspases 3, 7 (apoptosis activation), Mean±SD",[6]; 72h,-3.6±5 Δ/Δ%
C#Cc1cccc(Nc2ncnc3cc(OCCOC)c(OCCOC)cc23)c1 [Erlotinib],Free Cmax,[3],3.9 µM
same,"Imp (impedance), % change from baseline","[1]; 0.3 µM, 2h",0±3%
same,"Imp (impedance), % change from baseline","[1]; 0.3 µM, 24h",-5±3%
same,"Imp (impedance), % change from baseline","[1]; 0.3 µM, 48h",-5±4%
same,"Imp (impedance), % change from baseline","[1]; 0.3 µM, 72h",-5±6%
same,"Imp (impedance), % change from baseline","[1]; 0.3 µM, 96h",-3±6%
same,"Imp (impedance), % change from baseline","[1]; 1 µM, 2h",1±2%
same,"Imp (impedance), % change from baseline","[1]; 1 µM, 24h",-6±3%
same,"Imp (impedance), % change from baseline","[1]; 1 µM, 48h",-2±5%
same,"Imp (impedance), % change from baseline","[1]; 1 µM, 72h",-3±5%
same,"Imp (impedance), % change from baseline","[1]; 1 µM, 96h",1±9%
same,"Imp (impedance), % change from baseline","[1]; 3 µM, 72h",-2±4%
same,"Imp (impedance), % change from baseline","[1]; 3 µM, 96h",0±6%
same,"Imp (impedance), % change from baseline","[1]; 3 µM, 2h",1±3%
same,"Imp (impedance), % change from baseline","[1]; 3 µM, 24h",-6±2%
same,"Imp (impedance), % change from baseline","[1]; 3 µM, 48h",-1±5%
same,effect on impedance,[1]; 10 µM (highest concentration),"borderline decrease in impedance, which was statistically and physiologically significant only at the 24 h time point"
same,"Imp (impedance), % change from baseline","[1]; 10 µM, 2h",5±4%
same,"Imp (impedance), % change from baseline","[1]; 10 µM, 24h",-17±2 %
same,"Imp (impedance), % change from baseline","[1]; 10 µM, 48h",-13±3%
same,"Imp (impedance), % change from baseline","[1]; 10 µM, 72h",-13±3%
same,"Imp (impedance), % change from baseline","[1]; 10 µM, 96h",-10±2%
